Measurements reported in patent US6290974A, “Protein ingredient for carrying lipophilic nutrients” (priority 1998, dated 2001).
Where a name gives a salt, the structure may show the parent alone. Read-outs that look alike come from different tables or passages of the source.

Legend:
β-lactoglobulin (β-Lg) [1] = biological target: T1, β-lactoglobulin (β-Lg) (Bos taurus, UniProt P02754); test: Fluorescence titration of β-Lg with ligands (Equation [1]; Kd and n); type: binding; conditions: for molecules bound per molecule of protein: per molecule of protein / β-Lg monomer; for n (number of binding sites per molecule of protein), Table 1: 1 μM β-Lg, 50 mM phosphate pH 7.0, 23 °C, triplicate titrations (vitamin D2: five; ergosterol: single)
T1 construct: Isolation of β-Lg from Whey; from tissue; host or cells: whey (milk), purified by bioselective adsorption on N-retinyl-Celite
T1 sequence (P02754 17-178): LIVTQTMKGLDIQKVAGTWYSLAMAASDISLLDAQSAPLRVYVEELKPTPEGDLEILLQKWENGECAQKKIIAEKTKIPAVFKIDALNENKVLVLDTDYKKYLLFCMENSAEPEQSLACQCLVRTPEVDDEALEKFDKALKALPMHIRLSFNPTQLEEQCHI
Description: (§1) Fluorescence spectra were recorded at 23 ° C. with a System 3 Scanning Spectrofluorometer (Optical Technology Devices, Inc., Elmsford, N.Y.) using the ratio mode. Excitation and emission spectra were obtained with 1 μM solutions of β-Lg in 50 mM sodium phosphate, pH 7.0, both in the presence and absence of 2 μM concentrations of the various ligands. Titration of β-Lg with the various ligands was quantified by measuring the fluorescence quenching of the protein tryptophanyl residues (excitation at 287 nm, emission measured at 332 nm). The spectrofluorometer cuvette contained 2.5 ml of 1 μM β-Lg in the phosphate buffer to which 2.5-μl increments of the ligand solution in ethanol or ethyl ether were added with a micropipette. Dufour et al., (1990) FEBS Lett. 277, 223. […] Cogan et al., (1976) Eur. J. Biochem. 65, 71.
(§2) The titration can also be followed by measuring the increase in vitamin D or cholesterol fluorescence that was due to energy transfer from the tryptophanyl residue. Thus, with excitation at 287 nm, emission was measured at 412 nm for vitamin D or 390 nm for cholesterol.
The titration data can be used to evaluate the equilibrium dissociation constant and the number of binding sites per monomer as has been previously described. Cogan et al., (1976) Eur. J. Biochem. 65, 71; Dufour and Haertle, (1991) Biochim. Biophys. Acta 1079, 316; Wang et al., (1997) J. Dairy Sci. 80, 1047. The linear regression equation
PT a=(1/n)[RT a/(1-a)]-Kd /n
is used to calculate n, the number of binding sites per molecule of protein and Kd, the apparent dissociation constant. In this equation, PT is total protein concentration, and RT is total ligand concentration.
Cho et al., (1994) J. Biol. Chem. 269, 11102; Dufour and Haertle, (1991) Biochim. Biophys. Acta 1079, 316; Wang et al., (1997) J. Dairy Sci. 80, 1047. […] Cho et al., (1994) J. Biol. Chem. 269, 11102; Dufour and Haertle, (1991) Biochim. Biophys. Acta 1079, 316; Wang et al., (1997) J. Dairy Sci. 80, 1047.
(§3) Possible binding of vitamin D3 to β-Lg was also investigated by recording the fluorescence emission at 412 nm as a function of the excitation wavelength for vitamin solutions with and without added β-Lg (FIG. 4). […] In a titration experiment, the protein fluorescence at 332 nm with excitation at 287 nm was determined as a function of vitamin D3 concentration (FIG. 3). […] Also, the increase of vitamin D3 fluorescence at 412 nm with excitation at 287 nm for varying vitamin concentrations can be plotted according to Equation [1] as shown in FIG. 5B.
Dufour and Haertle, (1991) Biochim. Biophys. Acta 1079, 316; Wang et al., (1997) J. Dairy Sci. 80, 1047.
The potential binding of both cholesterol and 7-dehydrocholesterol to β-Lg was examined by fluorescence spectroscopy, essentially as described above for vitamin D (Example 3).
The titration data were used to calculate the equilibrium dissociation constant (Kd) and the number of binding sites per β-Lg monomer (n), as described in Example 3.

β-lactoglobulin (β-Lg) [2] = biological target: T1, β-lactoglobulin (β-Lg); test: Fluorescence emission/excitation spectra of β-Lg with and without ligand; type: binding; conditions: for energy transfer between protein tryptophanyl residues and ligand: emission 390 nm
Description: as §1, §2
Binding of hydrophobic ligands in proximity to Trp19 results in energy transfer between this protein residue and the ligand, and thus changes in the fluorescence emission spectra can be used to follow complex formation. Fluorescence emission spectra of β-Lg with and without bound vitamin D2 that result from excitation of tryptophanyl residues at 287 nm are shown in FIG. 1.
as §3
The potential binding of both cholesterol and 7-dehydrocholesterol to β-Lg was examined by fluorescence spectroscopy, essentially as described above for vitamin D (Example 3). […] A plot of the data that were obtained with varying cholesterol concentrations according to Equation [1] from Example 3 was similar to that for vitamin D3, shown in FIG. 5.
Studies were undertaken to evaluate whether other fat-soluble vitamins bind to β-Lg. Fluorescence emission spectra of β-Lg in the presence and absence of vitamin E, vitamin K1, or vitamin K2 were obtained essentially as described in Example 3.

β-lactoglobulin (β-Lg) [3] = biological target: T1, β-lactoglobulin (β-Lg); conditions: in vitro; cited from earlier work
[4] = Kd, Table 2, β-Lg titration as in Example 3

| SMILES | n, Table 2 (β-lactoglobulin (β-Lg) [1]; β-Lg titration as in Example 3) | Kd (β-lactoglobulin (β-Lg) [1]) | n (number of binding sites per molecule of protein), Table 1 (β-lactoglobulin (β-Lg) [1]) | Kd (β-lactoglobulin (β-Lg) [1]; [4]) | further results |
| --- | --- | --- | --- | --- | --- |
| CC1=C(C/C=C(\C)CCC[C@H](C)CCC[C@H](C)CCCC(C)C)C(=O)c2ccccc2C1=O [Vitamin K1, 2-methyl-3-phytyl-1,4-napthho-quinone] | 1.9 mol/mol β-LG |  |  |  | n values, molecules bound per β-Lg monomer (Example 6) (β-lactoglobulin (β-Lg) [1]): 1.9; molecules bound per molecule of protein (β-lactoglobulin (β-Lg) [1]): ~2 molecules; Kd (β-lactoglobulin (β-Lg) [1]; read-out: Kd values (Example 6)): 90 nM; Kd (β-lactoglobulin (β-Lg) [1]; read-out: order of magnitude of Kd (Example 6)): ~1 nM; Kd (β-lactoglobulin (β-Lg) [1]; β-Lg titration as in Example 3, read-out: Kd, Table 2): 90 nM; β-Lg fluorescence, 280 to 300 nm (β-lactoglobulin (β-Lg) [2]): increase; β-Lg fluorescence, 300 to 360 nm (β-lactoglobulin (β-Lg) [2]): quenched |
| C=C1CC[C@H](O)C/C1=C/C=C1\CCC[C@]2(C)[C@@H]([C@H](C)CCCC(C)C)CC[C@@H]12 [Vitamin D3, cholecalciferol] | 2.0 mol/mol β-LG | 36 nM | 2.01 mol/mol of protein | 36 nM | molecules bound per molecule of protein (β-lactoglobulin (β-Lg) [1]): 2 molecules; ligand fluorescence at 412 nm with excitation around 287 nm in presence of β-Lg (β-lactoglobulin (β-Lg) [2]; 2 μM ligand, 1 μM β-Lg, pH 7.0, 23 °C): increased intensity |
| C=CC1=C(C)c2cc3[nH]c(cc4nc(cc5[nH]c(cc1n2)c(C)c5CCC(=O)O)C(CCC(=O)O)=C4C)c(C)c3C=C [protoporphyrin IX] |  |  |  |  | binding to β-Lg reported (in words) (β-lactoglobulin (β-Lg) [3]): reported to bind |
| CC(C)CCC[C@@H](C)[C@H]1CC[C@H]2[C@@H]3CC=C4C[C@@H](O)CC[C@]4(C)[C@H]3CC[C@]12C [Cholesterol, cholesterol] | 2.4 mol/mol β-LG | 34.9 nM | 2.36 mol/mol of protein | 34.9 nM | energy transfer between protein tryptophanyl residues and ligand (β-lactoglobulin (β-Lg) [2]): energy was transferred |
| CC(C)CCC[C@@H](C)[C@H]1CC[C@H]2C3=CC=C4C[C@@H](O)CC[C@]4(C)[C@H]3CC[C@]12C [7-Dehydrocholesterol, 7-dehydrocholesterol] |  | 26.7 nM | 1.65 mol/mol of protein |  | energy transfer between protein tryptophanyl residues and ligand (β-lactoglobulin (β-Lg) [2]): energy was transferred |
| C=C1CC[C@H](OS(=O)(=O)O)C/C1=C/C=C1\CCC[C@]2(C)[C@@H]([C@H](C)CCCC(C)C)CC[C@@H]12 [Vitamin D3 sulfate, vitamin D3 sulfate] |  | 30.3 nM | 1.74 mol/mol of protein |  | mol bound per mol of protein (Example 4) (β-lactoglobulin (β-Lg) [1]): 2 mol~mol^-1 |
| CC1=CC(=O)c2ccccc2C1=O [Vitamin K3, menadione] |  |  |  |  | β-Lg fluorescence, 300 to 360 nm (β-lactoglobulin (β-Lg) [2]): No quenching; binding in the β-Lg calyx (β-lactoglobulin (β-Lg) [2]; inferred from absence of quenching): does not bind |
| CCCCCCCCCCCCCCCC(=O)O [Palmitic acid] | 1.2 mol/mol β-LG |  |  | 490 nM |  |
